Structures are written as SMILES. “And” between values parts separate entries of the source, which are not always exact repeats. Identical values can stand only once.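 Five concentrations, 48 hours, 96-well plates. GI50: concentration for 50% inhibition of growth. TGI denotes the concentration required for complete inhibition of growth.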 Where a SMILES comes first, the peptide text is derived from it. [ ]: non-standard residue; d: D form. The star is where a group is joined. Phe(4-NO2) = N[CH](Cc1ccc([N+](=O)[O-])cc1)C(=O)O; Boc = CC(C)(C)OC(=O)*

The values below come from PubChem BioAssay (NCI).

Among the test systems are RPMI-8226 leukemia; NCI/ADR-RES ovarian; SF-268 CNS; DU-145 prostate; SF-539 CNS; 786-0 renal; HCT-116 colon; LOX IMVI melanoma; CCRF-CEM leukemia; A498 renal.
Assay in all cases: growth of human tumour cells (NCI), 48 h

Regarding `S=C1C(=Nc2ccccc2)N(c2ccccc2)/C(=N\c2cccc[n+]2Cc2ccccc2)N1c1ccccc1`, the TGI in the assay with RPMI-8226 leukemia is 87.2 µM; with NCI/ADR-RES ovarian it was > 100 µM; in the assay on SF-268 CNS, 48.4 µM; with DU-145 prostate, > 100 µM; in the assay with SF-539 CNS it was 34 µM; in the assay with 786-0 renal, 30 µM. The TGI in the assay on HCT-116 colon is 23.9 µM.

Consider `Cc1cc(=O)[nH]c(NNC(C#N)c2ccccc2O)n1` (stereo unspecified), for which the TGI with LOX IMVI melanoma, with RPMI-8226 leukemia, in the assay with SF-268 CNS, with SF-539 CNS, in the assay on 786-0 renal and in the assay on HCT-116 colon was > 100 µM throughout. Further, the TGI in the assay with CCRF-CEM leukemia is > 100 µM.

For `CC(=O)CC(=O)N1CCSC1=S`, the TGI in the assay with A498 renal, in the assay on LOX IMVI melanoma, in the assay with RPMI-8226 leukemia, with SF-268 CNS, with DU-145 prostate and in the assay on SF-539 CNS was > 10 µM throughout. Besides, the TGI in the assay with 786-0 renal, in the assay on HCT-116 colon and with CCRF-CEM leukemia was > 10 µM throughout.

Turning to `CCOC(=O)CCC(NC(=O)C(Cc1ccc([N+](=O)[O-])cc1)NC(=O)OC(C)(C)C)C(=O)NC(CCC(=O)OCC)C(=O)OCC` (stereo unspecified) (Boc-[Phe(4-NO2)]-Glu(OEt)-Glu(OEt)-OEt; configuration not given here), the TGI was 36.4 µM in the assay with A498 renal, 43.3 µM in the assay on RPMI-8226 leukemia, 30.5 µM in the assay with 786-0 renal and 38.5 µM with HCT-116 colon.

Turning to `Cc1ccc(N2C(=O)C3CSCN3C2=O)cc1` (stereo unspecified), the TGI with A498 renal, with LOX IMVI melanoma, in the assay with RPMI-8226 leukemia, in the assay with NCI/ADR-RES ovarian, in the assay with SF-268 CNS and with SF-539 CNS was > 100 µM throughout. Also, the TGI in the assay with HCT-116 colon was > 100 µM and 11.7 µM; in the assay with CCRF-CEM leukemia, > 100 µM. The GI50 with HCT-116 colon was > 100 µM.

In the case of `COC(=O)c1onc(C2OC(C)(C)OC2C(O)COC(c2ccccc2)(c2ccccc2)c2ccccc2)c1C(=O)OC` (stereo unspecified), the TGI with A498 renal, in the assay with RPMI-8226 leukemia, in the assay on SF-268 CNS, in the assay with DU-145 prostate, in the assay on SF-539 CNS and in the assay on 786-0 renal was > 100 µM in each case. Further, the TGI in the assay on HCT-116 colon and with CCRF-CEM leukemia was > 100 µM throughout.

As to `Cc1cc(C)c2c(c1)C/C(=C\c1cccc(C)c1C(=O)O)C2=O`, the TGI with A498 renal, in the assay with LOX IMVI melanoma, in the assay on RPMI-8226 leukemia, in the assay with SF-268 CNS, with DU-145 prostate and in the assay with SF-539 CNS was > 100 µM each time. Moreover, the TGI with 786-0 renal, with HCT-116 colon and in the assay on CCRF-CEM leukemia was > 100 µM each time.

For the compound `O=C1c2ccncc2C(=O)c2c(O)ccc(O)c21`, the TGI in the assay on A498 renal amounted to 33.1 µM; in the assay on LOX IMVI melanoma it was 18.3 µM; with RPMI-8226 leukemia, 30.4 µM; with SF-268 CNS it was 24.2 µM; in the assay with SF-539 CNS, 13.4 µM; with 786-0 renal it was 19.2 µM. Also, the TGI with HCT-116 colon turned out to be 10.3 µM; in the assay with CCRF-CEM leukemia, 32.7 µM.

Take `O=c1cc(N2CCOCC2)n2c(ccc3ccccc32)n1`: the TGI in the assay on A498 renal, in the assay on LOX IMVI melanoma, in the assay with RPMI-8226 leukemia, in the assay with NCI/ADR-RES ovarian, in the assay on SF-268 CNS and with SF-539 CNS was > 100 µM each time. For the same compound, the TGI in the assay on 786-0 renal, with HCT-116 colon and in the assay on CCRF-CEM leukemia was > 100 µM each time.

As to `COC(=O)C(Cc1c[nH]c2ccccc12)NC(=O)C(Cc1c[nH]c2ccccc12)NC(=O)C(Cc1c[nH]c2ccccc12)NC(=O)C(Cc1c[nH]c2ccccc12)NC(=O)C(Cc1c[nH]c2ccccc12)NC(=O)C(Cc1c[nH]c2ccccc12)NC(=O)C(Cc1c[nH]c2ccccc12)NC(=O)OC(C)(C)C` (stereo unspecified) (Boc-WWWWWWW-OMe; configuration not given here), the TGI with LOX IMVI melanoma, in the assay on RPMI-8226 leukemia, with SF-268 CNS, in the assay with DU-145 prostate, in the assay on 786-0 renal and in the assay on HCT-116 colon was > 100 µM each time. Further, the TGI in the assay on CCRF-CEM leukemia is > 100 µM.

With `O=C(c1ccccc1)c1nnn(Cc2ccccc2Cn2nnc(C(=O)c3ccccc3)c2C(=O)c2ccccc2)c1C(=O)c1ccccc1`, the TGI in the assay on A498 renal, with LOX IMVI melanoma, in the assay on RPMI-8226 leukemia, in the assay on SF-268 CNS, in the assay on SF-539 CNS and with 786-0 renal was > 100 µM in each case. Moreover, the TGI in the assay with HCT-116 colon and with CCRF-CEM leukemia was > 100 µM throughout.

Turning to `CCC1=C(C[C@H]2NCCc3cc(OC)c(OC)cc32)C[C@H]2c3cc(OC)c(OC)cc3CCN2C1`, the TGI in the assay on A498 renal came out at 0.0497 µM; in the assay on RPMI-8226 leukemia, 0.229 µM; in the assay with SF-268 CNS it was 0.407 µM; with SF-539 CNS, 0.148 µM; with 786-0 renal, 0.107 µM; with HCT-116 colon it was 0.0745 µM.
